What was measured:
giant foxtail = test: Test B pre/postemergence giant foxtail; assay type: in vivo, Setaria faberii
Summary of the method: (§1)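 Test chemicals in a non-phytotoxic solvent mixture with surfactant were sprayed preemergence onto planted seeds and postemergence onto plants 2 to 18 cm tall (1- to 4-leaf stage). After twelve to sixteen days in a greenhouse, injury was visually rated against untreated controls from 0 (no effect) to 10 (complete control).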

cocklebur = test: Test B pre/postemergence cocklebur; assay type: in vivo, Xanthium strumarium
Summary of the method: as §1

purple nutsedge = test: Test B pre/postemergence purple nutsedge; assay type: in vivo, Cyperus rotundus
Summary of the method: as §1

wheat = test: Test B pre/postemergence wheat; assay type: in vivo, Triticum aestivum
Summary of the method: as §1

crabgrass = test: Test B pre/postemergence crabgrass; assay type: in vivo, Digitaria sanguinalis
Summary of the method: as §1

surinam grass = test: Test B pre/postemergence surinam grass; assay type: in vivo, Brachiaria decumbens
Summary of the method: as §1

blackgrass = test: Test B pre/postemergence blackgrass; assay type: in vivo, Alopecurus myosuroides
Summary of the method: as §1

rape = test: Test B pre/postemergence rape; assay type: in vivo, Brassica napus
Summary of the method: as §1

soybean = test: Test B pre/postemergence soybean; assay type: in vivo, Glycine max
Summary of the method: as §1

sugar beet = test: Test B pre/postemergence sugar beet; assay type: in vivo, Beta vulgaris
Summary of the method: as §1

corn = test: Test B pre/postemergence corn; assay type: in vivo, Zea mays
Summary of the method: as §1

wild oat = test: Test B pre/postemergence wild oat; assay type: in vivo, Avena fatua
Summary of the method: as §1

velvetleaf = test: Test B pre/postemergence velvetleaf; assay type: in vivo, Abutilon theophrasti
Summary of the method: as §1

morningglory = test: Test B pre/postemergence morningglory; assay type: in vivo, Ipomoea hederacea
Summary of the method: as §1

bedstraw = test: Test B pre/postemergence bedstraw; assay type: in vivo, Galium aparine; conditions: for Bedstraw plant response rating: 10 is complete control
Summary of the method: as §1

pigweed = test: Test B pre/postemergence pigweed; assay type: in vivo, Amaranthus retroflexus
Summary of the method: as §1

[1] = Postemergence, Rate 62 g/ha, scale of 0 to 10, 0 is no effect, 10 is complete control
[2] = Postemergence, Rate 125 g/ha, scale 0 to 10, 0 is no effect, 10 is complete control
[3] = Postemergence, Rate 500 g/ha, scale 0 to 10, 0 is no effect, 10 is complete control
[4] = Preemergence, Rate 62 g/ha, scale of 0 to 10 where 0 is no effect and 10 is complete control
[5] = Preemergence, Rate 125 g/ha, scale 0 to 10, 0 is no effect, 10 is complete control
[6] = Preemergence, Rate 500 g/ha, scale of 0 to 10 where 0 is no effect and 10 is complete control
[7] = Rate 250 g/ha, Postemergence, scale of 0 to 10 where 0 is no effect and 10 is complete control

CCC=CCn1c(=O)on(C(=O)N(c2ccc(F)cc2F)C(C)C)c1=O [Compound 523]
0: Cocklebur plant response rating (cocklebur; [1]) | Plant response rating, Cocklebur (cocklebur; [4]) | Cocklebur plant response rating (cocklebur; [5]) | Cocklebur plant response rating (0 to 10 scale) (cocklebur; Preemergence, Rate 250 g/ha) | Cocklebur plant response rating (cocklebur; [6]) | Nutsedge plant response rating (purple nutsedge; [1]) | Nutsedge plant response rating (purple nutsedge; [2]) | Plant response rating, Nutsedge (purple nutsedge; [3]) | Plant response rating, Nutsedge (purple nutsedge; [4]) | Nutsedge plant response rating (purple nutsedge; [5]) | Nutsedge plant response rating (0 to 10 scale) (purple nutsedge; Preemergence, Rate 250 g/ha) | Nutsedge plant response rating (purple nutsedge; [6]) | Plant response rating, Nutsedge (purple nutsedge; [7]) | Wheat plant response rating (wheat; [1]) | Wheat plant response rating (wheat; [2]) | Plant response rating, Wheat (wheat; [4]) | Wheat plant response rating (wheat; [5]) | Wheat plant response rating (0 to 10 scale) (wheat; Preemergence, Rate 250 g/ha) | Plant response rating, Wheat (wheat; [7]) | B. signalgrass plant response rating (surinam grass; [1]) | B. signalgrass plant response rating (surinam grass; [2]) | Blackgrass plant response rating (blackgrass; [1]) | Blackgrass plant response rating (blackgrass; [2]) | Rape plant response rating (rape; [1]) | Rape plant response rating (rape; [2]) | Plant response rating, Rape (rape; [4]) | Rape plant response rating (rape; [5]) | Plant response rating, Soybean (soybean; [4]) | Soybean plant response rating (soybean; [5]) | Soybean plant response rating (0 to 10 scale) (soybean; Preemergence, Rate 250 g/ha) | Soybean plant response rating (soybean; [6]) | Sugarbeets plant response rating (sugar beet; [1]) | Sugarbeets plant response rating (sugar beet; [2]) | Plant response rating, Sugarbeets (sugar beet; [3]) | Plant response rating, Sugarbeets (sugar beet; [7]) | Corn plant response rating (corn; [1]) | Corn plant response rating (corn; [2]) | Plant response rating, Corn (corn; [4]) | Corn plant response rating (corn; [5]) | Corn plant response rating (0 to 10 scale) (corn; Preemergence, Rate 250 g/ha) | Wild oats plant response rating (wild oat; [1]) | Wild oats plant response rating (wild oat; [2]) | Plant response rating, Wild oats (wild oat; [4]) | Wild oats plant response rating (wild oat; [5]) | Wild oats plant response rating (0 to 10 scale) (wild oat; Preemergence, Rate 250 g/ha) | Wild oats plant response rating (wild oat; [6]) | Plant response rating, Wild oats (wild oat; [7]) | Velvetleaf plant response rating (velvetleaf; [1]) | Plant response rating, Velvetleaf (velvetleaf; [4]) | Morningglory plant response rating (0 to 10 scale) (morningglory; Preemergence, Rate 250 g/ha) | Morningglory plant response rating (morningglory; [6]) | Bedstraw plant response rating (bedstraw; Postemergence, Rate 62 g/ha, scale of 0 to 10, 0 is no effect) | Bedstraw plant response rating (bedstraw; Postemergence, Rate 125 g/ha, scale 0 to 10, 0 is no effect) | Plant response rating, Bedstraw (bedstraw; [4]) | Bedstraw plant response rating (bedstraw; Preemergence, Rate 125 g/ha, scale 0 to 10, 0 is no effect) | Bedstraw plant response rating (0 to 10 scale) (bedstraw; Preemergence, Rate 250 g/ha) | Bedstraw plant response rating (bedstraw; Preemergence, Rate 500 g/ha, scale 0 to 10, 0 is no effect) | Redroot pigweed plant response rating (pigweed; [1])
5: B. signalgrass plant response rating (surinam grass; Preemergence, Rate 500 g/ha, scale 0 to 10, 0 is no effect, 10 is complete control) | Soybean plant response rating (soybean; [2]) | Plant response rating, Soybean (soybean; [3]) | Plant response rating, Soybean (soybean; [7]) | Velvetleaf plant response rating (velvetleaf; [6])
3: Crabgrass plant response rating (crabgrass; [1]) | Plant response rating, Blackgrass (blackgrass; [7]) | Plant response rating, Sugarbeets (sugar beet; [4]) | Velvetleaf plant response rating (velvetleaf; [2]) | Plant response rating, Velvetleaf (velvetleaf; [7]) | Morningglory plant response rating (morningglory; [2]) | Plant response rating, Redroot pigweed (pigweed; [3]) | Plant response rating, Redroot pigweed (pigweed; [7])
10: Plant response rating, Giant foxtail (giant foxtail; [4]) | Giant foxtail plant response rating (giant foxtail; [5]) | Giant foxtail plant response rating (0 to 10 scale) (giant foxtail; Preemergence, Rate 250 g/ha) | Giant foxtail plant response rating (giant foxtail; [6]) | Plant response rating, Crabgrass (crabgrass; [3]) | Crabgrass plant response rating (crabgrass; [5]) | Crabgrass plant response rating (0 to 10 scale) (crabgrass; Preemergence, Rate 250 g/ha) | Crabgrass plant response rating (crabgrass; [6])
4: Plant response rating, Giant foxtail (giant foxtail; [7]) | Wheat plant response rating (wheat; [6]) | Plant response rating, B. signalgrass (surinam grass; [4]) | Plant response rating, Blackgrass (blackgrass; [3]) | Blackgrass plant response rating (blackgrass; [5]) | Rape plant response rating (0 to 10 scale) (rape; Preemergence, Rate 250 g/ha) | Soybean plant response rating (soybean; [1]) | Sugarbeets plant response rating (sugar beet; [5]) | Plant response rating, Velvetleaf (velvetleaf; [3]) | Plant response rating, Morningglory (morningglory; [3]) | Morningglory plant response rating (morningglory; [5]) | Plant response rating, Morningglory (morningglory; [7])
6: Plant response rating, Giant foxtail (giant foxtail; [3]) | Plant response rating, Crabgrass (crabgrass; [7])
9: Plant response rating, Crabgrass (crabgrass; [4]) | B. signalgrass plant response rating (0 to 10 scale, 0 is no effect, 10 is complete control) (surinam grass; Preemergence, Rate 250 g/ha) | Sugarbeets plant response rating (sugar beet; [6]) | Corn plant response rating (corn; [6]) | Redroot pigweed plant response rating (pigweed; [5]) | Redroot pigweed plant response rating (0 to 10 scale) (pigweed; Preemergence, Rate 250 g/ha) | Redroot pigweed plant response rating (pigweed; [6])
2: Giant foxtail plant response rating (giant foxtail; [1]) | Giant foxtail plant response rating (giant foxtail; [2]) | Cocklebur plant response rating (cocklebur; [2]) | Plant response rating, Cocklebur (cocklebur; [3]) | Plant response rating, Cocklebur (cocklebur; [7]) | Plant response rating, Wheat (wheat; [3]) | Plant response rating, B. signalgrass (surinam grass; [7]) | Plant response rating, Blackgrass (blackgrass; [4]) | Plant response rating, Rape (rape; [3]) | Plant response rating, Rape (rape; [7]) | Plant response rating, Corn (corn; [3]) | Plant response rating, Corn (corn; [7]) | Plant response rating, Wild oats (wild oat; [3]) | Velvetleaf plant response rating (velvetleaf; [5]) | Velvetleaf plant response rating (0 to 10 scale) (velvetleaf; Preemergence, Rate 250 g/ha) | Morningglory plant response rating (morningglory; [1]) | Plant response rating, Morningglory (morningglory; [4]) | Redroot pigweed plant response rating (pigweed; [2]) | Plant response rating, Redroot pigweed (pigweed; [4])
8: Crabgrass plant response rating (crabgrass; [2]) | B. signalgrass plant response rating (surinam grass; [5])
7: Plant response rating, B. signalgrass (surinam grass; [3]) | Blackgrass plant response rating (0 to 10 scale) (blackgrass; Preemergence, Rate 250 g/ha) | Blackgrass plant response rating (blackgrass; [6]) | Rape plant response rating (rape; [6]) | Sugarbeets plant response rating (0 to 10 scale) (sugar beet; Preemergence, Rate 250 g/ha)

From US6737383B1, “Herbicidal oxadiazolidines” (priority 1999, dated 2004)
